# pIC50, pKi: −log10 of the molar value.
# Molecular target: T1, Tyrosinase (Agaricus bisporus, UniProt O42713)
# T1 sequence (O42713 whole entry): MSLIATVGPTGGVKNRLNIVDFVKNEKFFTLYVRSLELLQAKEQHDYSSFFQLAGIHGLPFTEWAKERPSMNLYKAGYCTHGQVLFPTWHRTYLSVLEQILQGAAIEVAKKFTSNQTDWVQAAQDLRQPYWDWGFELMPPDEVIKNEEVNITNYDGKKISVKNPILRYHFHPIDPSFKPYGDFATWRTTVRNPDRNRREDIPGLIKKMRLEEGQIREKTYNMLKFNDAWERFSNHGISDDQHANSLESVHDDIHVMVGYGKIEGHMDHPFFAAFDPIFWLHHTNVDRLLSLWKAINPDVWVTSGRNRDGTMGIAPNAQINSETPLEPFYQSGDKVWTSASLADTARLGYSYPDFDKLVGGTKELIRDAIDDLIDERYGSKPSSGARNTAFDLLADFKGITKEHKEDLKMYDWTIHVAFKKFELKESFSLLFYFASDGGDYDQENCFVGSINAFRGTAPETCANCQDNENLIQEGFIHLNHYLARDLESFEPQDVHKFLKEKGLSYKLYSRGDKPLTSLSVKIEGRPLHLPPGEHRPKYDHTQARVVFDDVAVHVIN
# Description: Inhibition of mushroom tyrosinase
Compound,pIC50,pKi
O=C(NCc1ccc(O)cc1)c1ccc(O)cc1O,2.74,–
O=C(NCc1cc(O)c(O)c(O)c1)c1cc(O)cc(O)c1,3.15,–
O=C(NCc1ccc(O)cc1)c1cc(O)c(O)c(O)c1,2.93,–
O=C(NCc1cc(O)c(O)c(O)c1)c1cc(O)c(O)c(O)c1,3.26,–
O=C(NCc1ccccc1)c1ccc(O)cc1O,2.78,–
O=C(NCc1ccccc1)c1ccccc1,2.70,–
O=C(NCc1ccc(O)cc1)c1ccc(O)c(O)c1,< 2.70,–
O=C(NCc1ccccc1)c1cc(O)c(O)c(O)c1,3.11,–
O=C(NCc1ccccc1)c1ccc(O)c(O)c1,< 2.70,–
O=C(NCc1ccccc1)c1cc(O)cc(O)c1,3.15,–
O=C(NCc1ccc(O)cc1)c1cc(O)cc(O)c1,3.15,–

# Results, then the compound that gave them:
pIC50,pKi,Compound
4.54,–,O=C(NCc1ccc(O)cc1O)c1ccc(O)cc1O
3.26,–,O=C(NCc1cc(O)c(O)c(O)c1)c1ccc(O)cc1O
4.96,–,O=C(NCc1ccc(O)cc1O)c1ccc(O)c(O)c1
4.77,–,O=C(NCc1ccc(O)cc1O)c1cc(O)c(O)c(O)c1
3.55,–,O=C(NCc1cc(O)c(O)c(O)c1)c1ccc(O)c(O)c1
5.66,5.89,O=C(NCc1ccc(O)cc1O)c1cc(O)cc(O)c1

# — ChEMBL document CHEMBL1147702, “N-Benzylbenzamides: a new class of potent tyrosinase inhibitors” (Bioorg Med Chem Lett, 2006)
